Data taken from publication PMC4858680, “A platinum-based hybrid drug design approach to circumvent acquired resistance to molecular targeted tyrosine kinase inhibitors” (Scientific Reports, 2016).
Like-named read-outs stand apart in the source and are kept apart here.

How the values were obtained:
ITK = molecular target: T1, ITK (Homo sapiens, UniProt Q08881); details: 10 μM
T1 sequence (Q08881 1-620): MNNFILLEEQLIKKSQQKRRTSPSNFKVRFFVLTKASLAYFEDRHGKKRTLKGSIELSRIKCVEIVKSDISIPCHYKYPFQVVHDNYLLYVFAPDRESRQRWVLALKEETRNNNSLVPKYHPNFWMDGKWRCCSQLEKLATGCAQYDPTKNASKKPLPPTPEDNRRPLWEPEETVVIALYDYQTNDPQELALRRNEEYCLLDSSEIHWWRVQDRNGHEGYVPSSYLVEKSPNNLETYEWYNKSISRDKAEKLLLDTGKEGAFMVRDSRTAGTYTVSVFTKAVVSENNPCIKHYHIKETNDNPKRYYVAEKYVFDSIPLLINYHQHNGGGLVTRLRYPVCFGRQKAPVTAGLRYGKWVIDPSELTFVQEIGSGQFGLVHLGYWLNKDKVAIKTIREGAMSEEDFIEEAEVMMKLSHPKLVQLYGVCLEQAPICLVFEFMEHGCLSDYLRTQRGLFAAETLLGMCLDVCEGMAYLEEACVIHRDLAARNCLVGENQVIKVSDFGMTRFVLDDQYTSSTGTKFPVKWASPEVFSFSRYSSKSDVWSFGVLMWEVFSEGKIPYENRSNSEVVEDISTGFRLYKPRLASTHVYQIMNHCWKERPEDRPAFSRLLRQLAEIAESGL

RET(V804TL) = RET(V804TL) (Homo sapiens, UniProt P07949, V804L); details: 10 μM
KIT(A829P) = KIT(A829P) (Homo sapiens, UniProt P10721, A829P); details: 10 μM
FLT3(K663D) = molecular target: T2, FLT3(K663D) (Homo sapiens, UniProt P36888, K663Q)
T2 sequence (P36888 564-993 K663Q limits assumed): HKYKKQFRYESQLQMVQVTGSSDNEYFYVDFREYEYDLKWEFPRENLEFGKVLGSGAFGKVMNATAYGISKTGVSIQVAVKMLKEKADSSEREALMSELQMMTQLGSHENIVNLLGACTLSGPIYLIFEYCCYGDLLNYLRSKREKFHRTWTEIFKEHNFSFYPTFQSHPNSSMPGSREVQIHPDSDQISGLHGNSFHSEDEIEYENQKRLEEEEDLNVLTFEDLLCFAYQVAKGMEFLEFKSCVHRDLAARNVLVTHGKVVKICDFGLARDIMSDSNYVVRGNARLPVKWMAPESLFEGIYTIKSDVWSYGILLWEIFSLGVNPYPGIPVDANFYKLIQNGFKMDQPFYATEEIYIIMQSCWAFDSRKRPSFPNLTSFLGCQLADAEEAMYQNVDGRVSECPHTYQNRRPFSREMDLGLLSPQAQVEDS

MUSK = molecular target: T3, MUSK (Homo sapiens, UniProt O15146); type: binding; details: for remaining binding at 10 µM: read-out: Percent control
T3 construct: purchased DiscoveRx KINOMEscan
T3 sequence (O15146 24-869): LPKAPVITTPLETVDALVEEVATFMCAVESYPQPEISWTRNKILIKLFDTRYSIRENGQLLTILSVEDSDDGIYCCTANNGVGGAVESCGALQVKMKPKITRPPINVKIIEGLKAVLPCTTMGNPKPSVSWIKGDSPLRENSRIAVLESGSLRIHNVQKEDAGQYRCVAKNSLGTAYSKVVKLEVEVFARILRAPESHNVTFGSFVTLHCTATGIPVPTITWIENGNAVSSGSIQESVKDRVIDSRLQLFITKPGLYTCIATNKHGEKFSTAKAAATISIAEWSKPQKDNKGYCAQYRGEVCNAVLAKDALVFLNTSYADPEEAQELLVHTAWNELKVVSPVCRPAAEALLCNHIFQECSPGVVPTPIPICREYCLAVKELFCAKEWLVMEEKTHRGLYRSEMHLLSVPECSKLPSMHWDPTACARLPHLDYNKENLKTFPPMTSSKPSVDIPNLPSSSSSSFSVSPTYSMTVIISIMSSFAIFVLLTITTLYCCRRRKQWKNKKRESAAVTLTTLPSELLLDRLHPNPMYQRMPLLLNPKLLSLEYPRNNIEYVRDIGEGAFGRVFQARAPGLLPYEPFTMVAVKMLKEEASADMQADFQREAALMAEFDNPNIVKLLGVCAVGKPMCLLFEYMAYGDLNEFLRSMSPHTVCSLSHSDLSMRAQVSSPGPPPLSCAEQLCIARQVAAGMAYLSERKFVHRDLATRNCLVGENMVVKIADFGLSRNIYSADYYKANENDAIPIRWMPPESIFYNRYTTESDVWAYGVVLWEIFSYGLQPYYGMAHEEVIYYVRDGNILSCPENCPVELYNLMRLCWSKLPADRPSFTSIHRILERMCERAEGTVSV

EPHA5 = EPHA5 (Homo sapiens, UniProt P54756); test: biochemical; details: read-out: Percent control
KIT(L576P) = KIT(L576P) (Homo sapiens, UniProt P10721, L576P); test: biochemical; details: read-out: Percent control
KIT(L576P), sequence (P10721 26-976 L576P): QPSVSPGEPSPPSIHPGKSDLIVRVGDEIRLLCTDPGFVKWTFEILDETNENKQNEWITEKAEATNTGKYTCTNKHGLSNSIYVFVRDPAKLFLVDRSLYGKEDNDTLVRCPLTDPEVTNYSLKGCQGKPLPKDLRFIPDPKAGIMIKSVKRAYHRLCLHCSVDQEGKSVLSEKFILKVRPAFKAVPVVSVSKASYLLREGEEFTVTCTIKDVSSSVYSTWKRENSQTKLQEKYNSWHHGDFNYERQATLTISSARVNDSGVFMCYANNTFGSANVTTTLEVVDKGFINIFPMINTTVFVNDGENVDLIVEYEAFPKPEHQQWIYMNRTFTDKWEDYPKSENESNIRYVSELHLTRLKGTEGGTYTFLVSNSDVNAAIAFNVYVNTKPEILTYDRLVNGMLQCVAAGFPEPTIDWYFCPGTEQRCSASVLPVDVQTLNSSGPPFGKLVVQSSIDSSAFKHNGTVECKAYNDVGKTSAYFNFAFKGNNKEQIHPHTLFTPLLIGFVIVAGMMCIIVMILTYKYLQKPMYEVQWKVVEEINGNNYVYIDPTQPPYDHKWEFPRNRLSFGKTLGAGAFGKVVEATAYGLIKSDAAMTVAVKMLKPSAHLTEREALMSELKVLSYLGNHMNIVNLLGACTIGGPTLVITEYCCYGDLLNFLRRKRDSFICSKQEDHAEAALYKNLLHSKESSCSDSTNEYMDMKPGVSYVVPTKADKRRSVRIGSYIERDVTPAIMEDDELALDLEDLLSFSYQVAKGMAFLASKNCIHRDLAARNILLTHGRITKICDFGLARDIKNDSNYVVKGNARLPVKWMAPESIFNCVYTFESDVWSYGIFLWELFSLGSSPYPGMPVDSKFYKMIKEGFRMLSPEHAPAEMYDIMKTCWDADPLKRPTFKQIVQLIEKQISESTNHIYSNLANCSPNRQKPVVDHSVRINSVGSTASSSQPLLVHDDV

RET(V804TL), sequence (P07949 29-1114 V804L): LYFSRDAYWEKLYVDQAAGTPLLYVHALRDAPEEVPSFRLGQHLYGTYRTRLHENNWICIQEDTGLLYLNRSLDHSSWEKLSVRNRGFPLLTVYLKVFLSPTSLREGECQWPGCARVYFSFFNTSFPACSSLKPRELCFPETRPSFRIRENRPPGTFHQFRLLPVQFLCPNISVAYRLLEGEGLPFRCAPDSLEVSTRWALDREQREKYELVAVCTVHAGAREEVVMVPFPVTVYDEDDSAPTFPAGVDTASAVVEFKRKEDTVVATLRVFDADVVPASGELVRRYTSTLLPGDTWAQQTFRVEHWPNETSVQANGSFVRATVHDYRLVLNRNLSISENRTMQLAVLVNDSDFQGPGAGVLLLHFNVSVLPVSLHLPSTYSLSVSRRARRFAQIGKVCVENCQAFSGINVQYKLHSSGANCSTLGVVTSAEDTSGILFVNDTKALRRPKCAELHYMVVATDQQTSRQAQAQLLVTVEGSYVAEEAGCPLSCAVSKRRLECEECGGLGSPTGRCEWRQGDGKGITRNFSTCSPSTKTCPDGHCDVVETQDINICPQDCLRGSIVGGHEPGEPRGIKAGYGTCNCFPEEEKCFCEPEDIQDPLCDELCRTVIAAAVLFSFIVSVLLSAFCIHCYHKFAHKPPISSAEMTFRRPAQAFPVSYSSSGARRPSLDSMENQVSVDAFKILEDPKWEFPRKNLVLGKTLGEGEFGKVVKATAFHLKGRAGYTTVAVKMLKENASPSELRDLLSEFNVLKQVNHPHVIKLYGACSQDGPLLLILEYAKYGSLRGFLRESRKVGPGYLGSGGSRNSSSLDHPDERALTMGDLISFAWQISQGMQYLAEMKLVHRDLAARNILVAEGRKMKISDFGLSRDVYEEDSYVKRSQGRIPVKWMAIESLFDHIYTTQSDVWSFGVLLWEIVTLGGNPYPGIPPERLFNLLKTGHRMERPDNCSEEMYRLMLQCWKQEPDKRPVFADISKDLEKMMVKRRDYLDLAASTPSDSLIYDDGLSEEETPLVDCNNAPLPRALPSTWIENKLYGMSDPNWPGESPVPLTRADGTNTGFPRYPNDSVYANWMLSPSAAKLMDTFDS
EPHA5, sequence (P54756 25-1037): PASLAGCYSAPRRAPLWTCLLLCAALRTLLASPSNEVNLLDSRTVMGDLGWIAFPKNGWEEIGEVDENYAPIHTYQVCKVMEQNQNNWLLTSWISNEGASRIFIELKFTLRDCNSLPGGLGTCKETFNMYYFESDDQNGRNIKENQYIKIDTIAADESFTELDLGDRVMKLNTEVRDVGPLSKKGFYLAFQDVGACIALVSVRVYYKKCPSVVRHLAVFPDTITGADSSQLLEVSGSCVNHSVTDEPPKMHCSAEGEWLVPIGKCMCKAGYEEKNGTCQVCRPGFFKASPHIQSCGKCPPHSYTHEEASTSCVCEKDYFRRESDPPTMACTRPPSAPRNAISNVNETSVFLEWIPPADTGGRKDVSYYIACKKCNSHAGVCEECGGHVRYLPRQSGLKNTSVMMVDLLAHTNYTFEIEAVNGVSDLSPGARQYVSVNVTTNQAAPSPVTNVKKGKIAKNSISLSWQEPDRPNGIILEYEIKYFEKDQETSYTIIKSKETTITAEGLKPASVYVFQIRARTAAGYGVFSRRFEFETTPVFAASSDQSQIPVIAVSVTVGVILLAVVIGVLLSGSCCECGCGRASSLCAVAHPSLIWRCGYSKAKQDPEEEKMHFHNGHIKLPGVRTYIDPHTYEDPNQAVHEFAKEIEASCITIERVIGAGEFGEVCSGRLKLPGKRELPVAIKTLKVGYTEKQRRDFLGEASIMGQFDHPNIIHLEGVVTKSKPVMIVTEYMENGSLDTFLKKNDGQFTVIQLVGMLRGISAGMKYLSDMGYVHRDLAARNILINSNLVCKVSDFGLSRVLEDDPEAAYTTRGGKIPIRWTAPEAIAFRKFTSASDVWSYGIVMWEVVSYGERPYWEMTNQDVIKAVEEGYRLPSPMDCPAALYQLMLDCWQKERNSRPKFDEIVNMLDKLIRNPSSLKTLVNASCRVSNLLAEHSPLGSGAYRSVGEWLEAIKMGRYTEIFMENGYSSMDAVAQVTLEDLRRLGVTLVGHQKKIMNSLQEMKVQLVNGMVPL
KIT(A829P), sequence (P10721 26-976 A829P): as the sequence (P10721 26-976 L576P) above, with P551L, A804P counted along it

Structure (SMILES): C#Cc1cccc(Nc2c3cc(OCCOC)c(OCCOC)cc3nc[n+]2[Pt@SP2-2]([NH3+])([NH3+])[Cl])c1 [2a, cisplatin-erlotinib]
- Percent control (ITK): 84%
- Percent control (RET(V804TL)): 100%
- Percent control (KIT(A829P)): 56%
- Percent control (FLT3(K663D)): 67
- Percent control (MUSK; MUSK, 10 μM): 97%

Structure (SMILES): COc1cc2c(Nc3ccc(Br)cc3F)[n+]([Pt-2]3([Cl])[NH2+]C4CCCCC4[NH2+]3)cnc2cc1OCC1CCN(C)CC1 (stereo not shown) [3b, oxaliplatin-vandetanib]
- Percent control (ITK): 95%
- Percent control (KIT(A829P)): 2.7%
- Percent control (FLT3(K663D)): 43
- Percent control (MUSK; MUSK, 10 μM): 95%

Structure (SMILES): Cc1ccc(NC(=O)c2ccc(CN3CCN(C)CC3)cc2)cc1Nc1nccc(-c2cccnc2)[n+]1[Pt-2]1([Cl])[NH2+]C2CCCCC2[NH2+]1 (stereo not shown) [1b, oxaliplatin-imatinib]
- Percent control (ITK): 100%
- Percent control (RET(V804TL)): 100%
- Percent control (KIT(A829P)): 5%
- Percent control (FLT3(K663D); FLT3(K663D), 10 μM): 84%
- Percent control (MUSK; MUSK, 10 μM): 100%

Structure (SMILES): COc1cc2c(Nc3ccc(Br)cc3F)ncnc2cc1OCC1CCN(C)CC1 [Vandetanib, reference compound]
- remaining activity at 10 µM (EPHA5): 2.3%
- remaining activity at 10 µM (KIT(L576P)): 1.4%
- remaining binding at 10 µM (MUSK; MUSK, 10 μM): 100%

Structure (SMILES): Cc1ccc(NC(=O)c2ccc(CN3CCN(C)CC3)cc2)cc1Nc1nccc(-c2cccnc2)n1 [Imatinib, reference compound]
- remaining activity at 10 µM (EPHA5): 100%
- Percent control (RET(V804TL)): 100%
- Percent control (FLT3(K663D); FLT3(K663D), 10 μM): 100%
- remaining activity at 10 µM (KIT(L576P)): 0.1%
- Percent control (MUSK; MUSK, 10 μM): 100%

Structure (SMILES): C#Cc1cccc(Nc2ncnc3cc(OCCOC)c(OCCOC)cc23)c1 [Erlotinib]
- remaining activity at 10 µM (EPHA5): 6.6%
- remaining activity at 10 µM (KIT(L576P)): 25.9%
- remaining binding at 10 µM (MUSK): 100%
